# Where two headings read alike, the source gives them in different places.
# Key:
# [1] = target: T1, hCB1 receptor (Homo sapiens, UniProt P21554); assay: competitive ligand binding assay with [3H]-CP-55,940 on hCB1 membrane preparations of HEK293-EBNA cells
# T1 construct: purchased Perkin Elmer; host or cells: HEK293-EBNA
# [2] = target: T1, hCB1 receptor; set-up: method as in earlier work; details: read-out: Ki at hCB1; comparable assay setup; ref 31 (Schoeder et al.); cited from earlier work
# T1 sequence (P21554 whole entry): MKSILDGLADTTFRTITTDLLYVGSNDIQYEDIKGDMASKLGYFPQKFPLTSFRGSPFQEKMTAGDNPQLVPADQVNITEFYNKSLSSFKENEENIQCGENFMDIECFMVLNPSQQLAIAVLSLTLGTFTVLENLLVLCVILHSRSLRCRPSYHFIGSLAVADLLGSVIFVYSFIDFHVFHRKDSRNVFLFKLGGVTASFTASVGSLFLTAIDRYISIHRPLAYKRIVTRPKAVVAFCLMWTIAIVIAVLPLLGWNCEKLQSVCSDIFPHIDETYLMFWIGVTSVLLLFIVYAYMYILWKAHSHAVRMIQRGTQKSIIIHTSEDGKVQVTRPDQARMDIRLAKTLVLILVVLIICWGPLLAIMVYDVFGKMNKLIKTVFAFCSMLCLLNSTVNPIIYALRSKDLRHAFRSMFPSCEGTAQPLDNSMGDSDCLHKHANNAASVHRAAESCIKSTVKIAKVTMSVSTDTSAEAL
Compound,IC50 [1],Ki [1],rank of Ki among the chloro analogues ([1]; comparison of the substitution positions),Ki [2]
"COC(=O)[C@@H](NC(=O)c1c(Cl)n(CC2CCCCC2)c2ccccc12)C(C)(C)C [2-Chloro-MDMB-CHMICA, Methyl (S)-2-(2-chloro-1-(cyclohexylmethyl)-1H-indole-3-carboxamido)-3,3-dimethylbutanoate]",23.6 nM,0.58 nM,lowest Ki value,–
"COC(=O)[C@@H](NC(=O)c1cn(CC2CCCCC2)c2cccc(Cl)c12)C(C)(C)C [4-Chloro-MDMB-CHMICA, Methyl (S)-2-(4-chloro-1-(cyclohexylmethyl)-1H-indole-3-carboxamido)-3,3-dimethylbutanoate]",268 nM,6.55 nM,–,–
"COC(=O)[C@@H](NC(=O)c1cn(CC2CCCCC2)c2ccc(Cl)cc12)C(C)(C)C [5-Chloro-MDMB-CHMICA, Methyl (S)-2-(5-chloro-1-(cyclohexylmethyl)-1H-indole3-carboxamido)-3,3-dimethylbutanoate]",402 nM,9.81 nM,–,–
"COC(=O)[C@@H](NC(=O)c1cn(CC2CCCCC2)c2cc(Cl)ccc12)C(C)(C)C [6-Chloro-MDMB-CHMICA, Methyl (S)-2-(6-chloro-1-(cyclohexylmethyl)-1H-indole-3-carboxamido)-3,3-dimethylbutanoate]",31.6 nM,0.77 nM,–,–
"COC(=O)[C@@H](NC(=O)c1cn(CC2CCCCC2)c2c(Cl)cccc12)C(C)(C)C [7-Chloro-MDMB-CHMICA, Methyl (S)-2-(7-chloro-1-(cyclohexylmethyl)-1H-indole-3-carboxamido)-3,3-dimethylbutanoate]",28.8 nM,0.7 nM,–,–
"CCCCCn1cc(C(=O)c2cccc3ccccc23)c2ccccc21 [JWH-018, naphthalen-1-yl(1-pentyl-1H-indol-3-yl)methanone, reference compound]",103 nM,2.69 nM,–,–
"COC(=O)C(NC(=O)c1cn(CC2CCCCC2)c2ccccc12)C(C)(C)C (stereo not drawn) [MDMB-CHMICA, Methyl 2-[[1-(cyclohexylmethyl)-1H-indole-3-carbonyl]amino]-3,3-dimethylbutanoate]",–,0.951 nM,–,0.41 ± 0.141 nM

# Reference: publication PMC11592078, “Synthesis, Analytical Characterization, and Human CB1 Receptor Binding Studies of the Chloroindole Analogues of the Synthetic Cannabinoid MDMB-CHMICA” (Biomolecules, 2024)
